# Measurements from patent EP3498298A1, “THE USE OF SGC STIMULATORS AND SGC ACTIVATORS ALONE OR IN COMBINATION WITH PDE5 INHIBITORS FOR THE TREATMENT OF BONE DISORDERS INCLUDING OSTEOGENESIS IMPERFECTA (OI)” (Bayer AG, priority 2017, dated 2019).
# What was measured:
# [1] = tested on: B6C3Fe a/a-Col1a2 oim /J (OI mice) termed as HOM; test: 16 week chronic treatment study, micro-CT of femora (bone morphology and architecture) in OI mice; format: in vivo; settings: 300 ppm (300mg/kg chow), 16 weeks; treated female HOM mice compared to untreated female HOM mice; P < 0.05
# Text: (§1) Preferentially mice were used, especially transgenic mice (B6C3Fe a/a-Col1a2 oim /J (Jackson Laboratories)) (Chipman et al. 1993, McBride et al. 1998). These so called OI-mice (OIM, also called HOM mice) carry a mutation in the collagen gen (Col1a2) which reflects the phenotype and clinical situation of patients with […] OI. For the treatment homozygous OIM are used and compared with WT mice which serve as control.
# (§2) As read-outs were preferentially used: • semiquantitative RT/PCR (TaqMan PCR) to assess gene expression according to standard procedures • histopathology to assess bone morphology according to standard procedures • high-resolution micro-CTscanner (µCT 35; Scanco Medical AG, Briittisellen, Switzerland) to evaluate bone morphology and architecture (Micro-CT) • three-point bending test to assess mechanical properties of the femora (Mechanical testing)
# (§3) A high-resolution micro-CTscanner (µCT 35; Scanco Medical AG, Briittisellen, Switzerland) was used to evaluate bone morphology and architecture. […] The trabecular and cortical parameters were determined according to the guidelines for the assessment of bone microstructure with micro-CT (Bouxsein et al., 2010). […]
# wild-type mice (WT) = test: 16 week chronic treatment study, micro-CT of femora (bone morphology and architecture) in wild-type mice; format: in vivo; settings: 300 ppm (300mg/kg chow), 16 weeks
# Text: as §1, §2, §3
# [2] = tested on: ovariectomized female mice; settings: intraperitoneally, 10µg/kg bolus dose; cited from earlier work
# mice = settings: cited from earlier work
structure (smiles),measurement,setting,value
"Nc1nc(-c2nn(Cc3ccccc3F)c3ncccc23)ncc1C1CC1 [BAY 41-2272, 3-(4-amino-5-cyclopropylpyrimidin-2-yl)-1-(2-fluorobenzyl)-1H-pyrazolo[3,4-b]pyridine]",trabecular number (Tb.N),[1],increased
same,trabecular separation (Tb.Sp),[1],decreased
same,structural properties of both trabecular and cortical bone,wild-type mice (WT),no effect
O=C(O)CCCCN(CCc1ccccc1OCc1ccc(CCc2ccccc2)cc1)Cc1ccc(C(=O)O)cc1 [cinaciguat],bone density,[2],could increase bone density
"CCCc1nn(C)c2c(=O)[nH]c(-c3cc(S(=O)(=O)N4CCN(C)CC4)ccc3OCC)nc12 [sildenafil, 3-[2-ethoxy-5-(4-methylpiperazin-1-yl)sulfonyl-phenyl]-7-methy1-9-propy1-2,4,7,8-tetrazabicyclo [4.3.0]nona-3,8,10-trien-5-one]",fracture healing,mice,accelerates fracture healing
